Common to all, as to assay type: functional
In one experiment the test system is Pasteurella multocida. Briefly: Compound was tested for minimum inhibitory concentration against Pasteurella multocida.
The subject of experiment [1] is Brachyspira hyodysenteriae. Briefly: Compound was tested for minimum inhibitory concentration against S. hyodysenteriae; 6.25-12.5.
Experiment [2] has as its system Brachyspira hyodysenteriae. The experiment can be described thus: Compound was tested for minimum inhibitory concentration against Serpulina hyodysenteriae.

Molecules are shown by their SMILES. Converted amounts (≈) assume the structure as drawn.

In the case of `CC/C=C1/COc2cc(/C=C(\C)C(=O)N[C@@H]3[C@H](O)[C@@H](O)[C@H]4OCO[C@H]4[C@@H]3O)ccc21`, the minimal inhibitory concentration (MIC) with Pasteurella multocida turned out to be 50 µg/mL (≈ 120 µM).

On to `C=CCOc1cc2c(cc1O)C=C(C(=O)N[C@@H]1[C@H](O)[C@@H](O)[C@H]3OCO[C@H]3[C@@H]1O)CC2`, for which the MIC in experiment [1] is 6.25 µg/mL (≈ 14.9 µM); in the experiment on Pasteurella multocida, 12.5 µg/mL (≈ 29.8 µM).

Turning to `C=CCOc1cc2c(cc1O)C=C(C(=O)N[C@@H]1[C@H](O)[C@@H](O)[C@H]3OCO[C@H]3[C@@H]1O)C2`, the minimal inhibitory concentration (MIC) (in experiment [2]; in the experiment with Pasteurella multocida) was over 200 µg/mL in each case.

Turning to `C=CCOc1cc2ccc(C(=O)N[C@@H]3[C@H](O)[C@@H](O)[C@H]4OCO[C@H]4[C@@H]3O)cc2cc1O`, the MIC (in experiment [2]; in the experiment on Pasteurella multocida) was 50 µg/mL (≈ 120 µM) in each case.

On to `CCCc1coc2cc(/C=C(\C)C(=O)N[C@@H]3[C@H](O)[C@@H](O)[C@H]4OCO[C@H]4[C@@H]3O)ccc12`, for which it took 50 µg/mL (≈ 120 µM) to inhibit growth against Pasteurella multocida (MIC).

For `C=CCOc1cc2c(cc1O)C=C(C(=O)N[C@@H]1[C@H](O)[C@@H](O)[C@H]3OCO[C@H]3[C@@H]1O)CCC2`, the minimal inhibitory concentration (MIC) (in experiment [2]; against Pasteurella multocida) was 25 µg/mL (≈ 57.7 µM) throughout.

Take `CC/C=C1\COc2cc(/C=C(\C)C(=O)N[C@@H]3[C@H](O)[C@@H](O)[C@H]4OCO[C@H]4[C@@H]3O)ccc21`: the lowest concentration to inhibit growth against Pasteurella multocida (MIC) was 50 µg/mL (≈ 120 µM).

As for `C=CCOc1ccc2c(c1O)CCC(C(=O)N[C@@H]1[C@H](O)[C@@H](O)[C@H]3OCO[C@H]3[C@@H]1O)=C2`, the MIC (in experiment [2]; with Pasteurella multocida) was over 200 µg/mL throughout.

For the molecule `CCCC1COc2cc(/C=C(\C)C(=O)N[C@@H]3[C@H](O)[C@@H](O)[C@H]4OCO[C@H]4[C@@H]3O)ccc21` (some centres undefined), 6.25 µg/mL (≈ 14.9 µM) was the least that counted as inhibitory in the experiment with Pasteurella multocida (MIC).

(Values after ChEMBL document CHEMBL1130473, “Synthesis and in vitro antibacterial activities of novel conformationally restricted hygromycin a analogues” (1997).)
